Experimental data published in US12649750B2, “Macrocyclic compounds, compositions, and methods of using thereof” (Sionna Therapeutics Inc., priority 2022, dated 2026).
Values belong to the molecule of their own block, whether it stands above or below them.

What was measured:
CFTR = target: T1, CFTR (Homo sapiens, UniProt P13569, DEL508-508); experiment: TECC24 AUC fold over DMSO @10 μM, CFTR-mediated transepithelial chloride transport in CF-HBE cells; format: cell-based; settings: test agent AUC divided by DMSO vehicle AUC, primary CF-HBE cells, ΔF508 homozygous donor, 48 hours incubation
T1 construct: Primary human bronchial epithelial cells from a ΔF508 homozygous CF donor; host or cells: primary human bronchial epithelial cells (CF-HBE), ΔF508 homozygous donor
Method in brief: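 Value is ratio of test-agent to DMSO AUC of equivalent transepithelial Cl− current, integrated from forskolin (10 μM) stimulation to CFTR inhibitor-172 (20 μM) block, with benzamil 10 μM present. CF-HBE (ΔF508/ΔF508) cultures had 48 h compound exposure at 10 μM, 36.5° C before recording.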

NBD1 = target: T2, NBD1 (Homo sapiens, UniProt P13569); experiment: Aggregation analysis using differential static light scattering (DSLS), thermal stability of NBD1 (ΔTagg); format: binding; settings: ΔTagg versus DMSO control, NBD1 0.2 mg/ml
T2 construct: Purified recombinant NBD1 was produced using previously described methods; made in house
Method in brief: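 Read-out is ΔTagg: the aggregation temperature, taken at the inflection of the light-scattering curve, less the average of DMSO control wells. Recombinant NBD1 (0.2 mg/ml, pH7.6 buffer containing 2 mM ATP) with test compound was heated at 1° C. per minute up to 70° C.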

T2 sequence (P13569 423-646 limits assumed): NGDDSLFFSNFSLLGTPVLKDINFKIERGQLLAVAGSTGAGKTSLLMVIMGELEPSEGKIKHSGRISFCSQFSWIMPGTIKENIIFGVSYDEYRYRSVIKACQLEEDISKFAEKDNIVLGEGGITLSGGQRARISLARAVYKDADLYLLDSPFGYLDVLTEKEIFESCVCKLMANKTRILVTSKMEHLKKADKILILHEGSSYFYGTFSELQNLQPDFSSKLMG
T1 sequence (P13569 with tags, fused parts or gaps DEL508-508): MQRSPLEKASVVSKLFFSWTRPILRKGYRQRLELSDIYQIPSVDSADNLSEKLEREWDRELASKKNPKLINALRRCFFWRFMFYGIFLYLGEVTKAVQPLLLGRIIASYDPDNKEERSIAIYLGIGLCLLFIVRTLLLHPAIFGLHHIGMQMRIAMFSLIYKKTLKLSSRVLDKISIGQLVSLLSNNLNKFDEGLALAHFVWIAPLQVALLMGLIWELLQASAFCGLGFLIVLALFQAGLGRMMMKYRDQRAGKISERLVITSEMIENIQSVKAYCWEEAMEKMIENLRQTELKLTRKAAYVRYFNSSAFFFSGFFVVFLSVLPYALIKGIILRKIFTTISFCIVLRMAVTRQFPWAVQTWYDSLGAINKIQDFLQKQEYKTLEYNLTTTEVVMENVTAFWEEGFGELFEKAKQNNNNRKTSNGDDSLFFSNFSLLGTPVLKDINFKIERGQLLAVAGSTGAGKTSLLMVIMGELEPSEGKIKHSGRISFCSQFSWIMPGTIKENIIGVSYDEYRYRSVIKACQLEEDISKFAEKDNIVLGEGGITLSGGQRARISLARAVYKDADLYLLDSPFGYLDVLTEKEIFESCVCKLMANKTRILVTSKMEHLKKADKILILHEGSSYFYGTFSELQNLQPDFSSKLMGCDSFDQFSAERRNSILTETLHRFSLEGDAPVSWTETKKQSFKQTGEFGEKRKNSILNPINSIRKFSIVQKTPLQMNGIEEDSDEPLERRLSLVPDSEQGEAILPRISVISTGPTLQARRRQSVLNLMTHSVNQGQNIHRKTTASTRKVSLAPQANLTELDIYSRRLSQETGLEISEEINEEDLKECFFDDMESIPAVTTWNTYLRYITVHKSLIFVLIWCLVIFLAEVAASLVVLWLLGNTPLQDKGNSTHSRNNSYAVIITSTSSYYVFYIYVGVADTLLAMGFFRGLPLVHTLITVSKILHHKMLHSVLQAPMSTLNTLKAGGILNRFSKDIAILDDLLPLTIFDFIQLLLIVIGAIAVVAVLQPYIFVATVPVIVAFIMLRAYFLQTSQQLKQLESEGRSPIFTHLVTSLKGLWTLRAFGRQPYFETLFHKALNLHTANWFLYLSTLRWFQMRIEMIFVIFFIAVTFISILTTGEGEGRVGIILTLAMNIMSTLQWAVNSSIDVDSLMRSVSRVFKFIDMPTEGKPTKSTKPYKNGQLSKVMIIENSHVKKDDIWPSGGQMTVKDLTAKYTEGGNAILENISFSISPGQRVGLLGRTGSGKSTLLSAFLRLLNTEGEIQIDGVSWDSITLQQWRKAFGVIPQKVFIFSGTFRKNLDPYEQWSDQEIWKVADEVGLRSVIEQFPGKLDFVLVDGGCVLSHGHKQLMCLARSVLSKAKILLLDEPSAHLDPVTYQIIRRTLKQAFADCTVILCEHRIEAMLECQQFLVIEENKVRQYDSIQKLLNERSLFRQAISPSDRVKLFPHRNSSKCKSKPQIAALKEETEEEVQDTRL

TECC (AUC, 10 μM) (CFTR): B (a value between 12-20 is marked “B”)
SMILES: CC1(C)CCCC(c2cccc(CCC(=O)O)c2)n2ccc(n2)-c2cccc(c2)Oc2c(F)cc3[nH]ccc3c2CCS(=O)(=O)C1 (stereo not drawn) [Compound 23, 3-[3-(22-Fluoro-10,10-dimethyl-12,12-dioxo-24-oxa-12lambda6-thia-5,19,30-triazapentacyclo[23.3.1.12,5.015,23.016,20]triaconta-1(29),2(30),3,15,17,20,22,25,27-nonaen-6-yl)phenyl]propanoic Acid]
DSLS 3D (100 μM ΔT) (NBD1): C (a value greater than 10 °C and less than or equal to 25 °C is marked “C”)

SMILES: CC(Cc1cccc(C2CCCC(C)(C)CS(=O)(=O)CCc3c(c(F)cc4[nH]ccc34)Oc3cccc(c3)-c3ccn2n3)c1)C(=O)O (stereo not drawn) [Compound 25, 3-[3-(22-Fluoro-10,10-dimethyl-12,12-dioxo-24-oxa-12lambda6-thia-5,19,30-triazapentacyclo[23.3.1.12,5.015,23.016,20]triaconta-1(29),2(30),3,15,17,20,22,25,27-nonaen-6-yl)phenyl]-2-methyl-propanoic Acid]
TECC (AUC, 10 μM) (CFTR): A (a TECC value less than 12 is marked “A”)
DSLS 3D (100 μM ΔT) (NBD1): C (a value greater than 10 °C and less than or equal to 25 °C is marked “C”)

SMILES: CC1(C)CCCC(c2cccc(CC(=O)O)c2)n2ccc(n2)-c2cc(ccc2F)Oc2c(F)cc3[nH]ccc3c2CCS(=O)(=O)C1 (stereo not drawn) [Compound 26, 2-[3-(22,28-Difluoro-10,10-dimethyl-12,12-dioxo-24-oxa-12lambda6-thia-5,19,30-triazapentacyclo[23.3.1.12,5.015,23.016,20]triaconta-1(29),2(30),3,15,17,20,22,25,27-nonaen-6-yl)phenyl]acetic Acid]
TECC (AUC, 10 μM) (CFTR): C (a value between 20 and 80 is marked “C”)
DSLS 3D (100 μM ΔT) (NBD1): C (a value greater than 10 °C and less than or equal to 25 °C is marked “C”)

SMILES: CC1(c2cccc(CCC(=O)O)c2)CCCCCS(=O)(=O)CCc2c(c(F)cc3[nH]ccc23)Oc2ccc(F)c(c2)-c2ncc1[nH]2 (stereo not drawn) [Compound 37, 3-[3-(22,28-Difluoro-6-methyl-12,12-dioxo-24-oxa-12λ6-thia-3,19,30-triazapentacyclo[23.3.1.12,5.015,23.016,20]triaconta-1(29),2,4,15,17,20,22,25,27-nonaen-6-yl)phenyl]propanoic Acid]
TECC (AUC, 10 μM) (CFTR): A (a TECC value less than 12 is marked “A”)
DSLS 3D (100 μM ΔT) (NBD1): C (a value greater than 10 °C and less than or equal to 25 °C is marked “C”)

TECC (AUC, 10 μM) (CFTR): B (a value between 12-20 is marked “B”)
SMILES: O=C(O)CCc1cccc(C2CCS(=O)(=O)CCc3cn(nn3)Cc3c(c(F)cc4[nH]ccc34)Oc3ccc(F)c(c3)-c3ncc2[nH]3)c1F (stereo not drawn) [Compound 40, 3-[3-(24,30-Difluoro-9,9-dioxo-26-oxa-9lambda6-thia-3,13,14,15,21,33-hexazahexacyclo[25.3.1.12,5.112,15.017,25.018,22]tritriaconta-1(31),2,4,12(32),13,17,19,22,24,27,29-undecaen-6-yl)-2-fluoro-phenyl]propanoic Acid]
DSLS 3D (100 μM ΔT) (NBD1): C (a value greater than 10 °C and less than or equal to 25 °C is marked “C”)

SMILES: O=S1(=O)CCc2cn(nn2)Cc2c(c(F)cc3[nH]ccc23)Oc2ccc(F)c(c2)-c2ncc([nH]2)C(c2ccccc2F)CC1 (stereo not drawn) [Compound 41, 24,30-Difluoro-6-(2-fluorophenyl)-26-oxa-9λ6-thia-3,13,14,15,21,33-hexazahexacyclo[25.3.1.12,5.112,15.017,25.018,22]tritriaconta-1(31),2,4,12(32),13,17,19,22,24,27,29-undecaene 9,9-dioxide]
TECC (AUC, 10 μM) (CFTR): A (a TECC value less than 12 is marked “A”)
DSLS 3D (100 μM ΔT) (NBD1): C (a value greater than 10 °C and less than or equal to 25 °C is marked “C”)

TECC (AUC, 10 μM) (CFTR): B (a value between 12-20 is marked “B”)
SMILES: CC1CCC(C)(c2cccc(CCC(=O)O)c2)c2cnc([nH]2)-c2cc(ccc2F)Oc2c(F)cc3[nH]ccc3c2CCS(=O)(=O)CC1 (stereo not drawn) [Compound 42, 3-[3-(22,28-Difluoro-6,9-dimethyl-12,12-dioxo-24-oxa-12lambda6-thia-3,19,30-triazapentacyclo[23.3.1.12,5.015,23.016,20]triaconta-1(29),2,4,15,17,20,22,25,27-nonaen-6-yl)phenyl]propanoic Acid]
DSLS 3D (100 μM ΔT) (NBD1): C (a value greater than 10 °C and less than or equal to 25 °C is marked “C”)

SMILES: CC1(C)CCCC(C)(c2cccc(CCC(=O)O)c2)c2coc(n2)-c2cc(ccc2F)Oc2c(F)cc3[nH]ccc3c2CCS(=O)(=O)C1 (stereo not drawn) [Compound 44, 3-[3-(22,28-Difluoro-6,10,10-trimethyl-12,12-dioxo-3,24-dioxa-12lambda6-thia-19,30-diazapentacyclo[23.3.1.12,5.015,23.016,20]triaconta-1(29),2(30),4,15,17,20,22,25,27-nonaen-6-yl)phenyl]propanoic Acid]
TECC (AUC, 10 μM) (CFTR): A (a TECC value less than 12 is marked “A”)
DSLS 3D (100 μM ΔT) (NBD1): C (a value greater than 10 °C and less than or equal to 25 °C is marked “C”)

SMILES: CC1(C)CSCc2c(c(F)cc3[nH]ccc23)Oc2ccc(F)c(c2)-c2nc(c[nH]2)C(C)(c2cccc(CCC(=O)O)c2)CCCO1 (stereo not drawn) [Compound 46, 3-[3-(22,28-difluoro-6,11,11-trimethyl-10,24-dioxa-13-thia-3,19,30-triazapentacyclo[23.3.1.12,5.015,23.016,20]triaconta-1(29),2(30),4,15,17,20,22,25,27-nonaen-6-yl)phenyl]propanoic Acid]
TECC (AUC, 10 μM) (CFTR): C (a value between 20 and 80 is marked “C”)
DSLS 3D (100 μM ΔT) (NBD1): C (a value greater than 10 °C and less than or equal to 25 °C is marked “C”)

TECC (AUC, 10 μM) (CFTR): B (a value between 12-20 is marked “B”)
SMILES: CC1(C)C[S+]([O-])Cc2c(c(F)cc3[nH]ccc23)Oc2ccc(F)c(c2)-c2nc(c[nH]2)C(C)(c2cccc(CCC(=O)O)c2)CCCO1 (stereo not drawn) [Compound 47, 3-[3-(22,28-Difluoro-6,11,11-trimethyl-13-oxo-10,24-dioxa-13M-thia-3,19,30-triazapentacyclo[23.3.1.12,5.015,23.016,20]triaconta-1(29),2,4,15,17,20,22,25,27-nonaen-6-yl)phenyl]propanoic Acid]
DSLS 3D (100 μM ΔT) (NBD1): C (a value greater than 10 °C and less than or equal to 25 °C is marked “C”)

SMILES: CC1(C)CS(=O)(=O)Cc2c(c(F)cc3[nH]ccc23)Oc2ccc(F)c(c2)-c2ncc([nH]2)C(C)(c2cccc(CCC(=O)O)c2)CCCO1 (stereo not drawn) [Compound 48, 3-[3-(22,28-Difluoro-6,11,11-trimethyl-13,13-dioxo-10,24-dioxa-13λ6-thia-3,19,30-triazapentacyclo[23.3.1.12,5.015,23.016,20]triaconta-1(29),2,4,15,17,20,22,25,27-nonaen-6-yl)phenyl]propanoic Acid]
TECC (AUC, 10 μM) (CFTR): C (a value between 20 and 80 is marked “C”)
DSLS 3D (100 μM ΔT) (NBD1): C (a value greater than 10 °C and less than or equal to 25 °C is marked “C”)

SMILES: CC1(C)CCCC(C)(c2cccc(CCC(=O)O)c2)c2csc(n2)-c2cccc(c2)Oc2c(F)cc3[nH]ccc3c2CCS(=O)(=O)C1 (stereo not drawn) [Compound 50, 3-[3-(22-Fluoro-6,10,10-trimethyl-12,12-dioxo-24-oxa-3,12λ6-dithia-19,30-diazapentacyclo[23.3.1.12,5.015,23.016,20]triaconta-1(29),2(30),4,15,17,20,22,25,27-nonaen-6-yl)phenyl]propanoic Acid]
TECC (AUC, 10 μM) (CFTR): C (a value between 20 and 80 is marked “C”)
DSLS 3D (100 μM ΔT) (NBD1): C (a value greater than 10 °C and less than or equal to 25 °C is marked “C”)
